Results taken from ChEMBL document CHEMBL1149880, “Xanthones from Gentianella amarella ssp. acuta with acetylcholinesterase and monoamine oxidase inhibitory activities” (J Nat Prod, 2008).

Tests used:
[1] = molecular target: Acetylcholinesterase (Homo sapiens) (UniProt P22303); settings: at 10 µM
Description: Inhibition of acetylcholinesterase at 10 uM by Ellman's method

[2] = molecular target: T1, Amine oxidase [flavin-containing] B (Homo sapiens, UniProt P27338); assay: Inhibition of monoamine oxidase B at 10 uM; settings: read-out: INH
T1 sequence (P27338 whole entry): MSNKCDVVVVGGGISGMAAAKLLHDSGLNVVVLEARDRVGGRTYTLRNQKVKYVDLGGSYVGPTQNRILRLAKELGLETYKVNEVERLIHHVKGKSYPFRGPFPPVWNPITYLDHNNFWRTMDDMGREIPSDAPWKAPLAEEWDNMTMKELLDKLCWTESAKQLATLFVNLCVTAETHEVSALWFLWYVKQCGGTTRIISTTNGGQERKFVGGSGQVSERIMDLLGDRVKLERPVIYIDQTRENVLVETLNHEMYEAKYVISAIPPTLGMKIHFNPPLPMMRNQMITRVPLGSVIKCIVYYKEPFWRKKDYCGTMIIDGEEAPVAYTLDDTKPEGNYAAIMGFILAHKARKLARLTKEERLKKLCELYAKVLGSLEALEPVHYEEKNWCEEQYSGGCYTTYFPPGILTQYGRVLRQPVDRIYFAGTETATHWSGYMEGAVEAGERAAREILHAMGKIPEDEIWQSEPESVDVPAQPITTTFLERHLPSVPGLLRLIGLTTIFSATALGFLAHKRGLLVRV

[3] = molecular target: T2, Amine oxidase [flavin-containing] A (Homo sapiens, UniProt P21397); assay: Inhibition of monoamine oxidase A at 10 uM; settings: read-out: INH
T2 sequence (P21397 whole entry): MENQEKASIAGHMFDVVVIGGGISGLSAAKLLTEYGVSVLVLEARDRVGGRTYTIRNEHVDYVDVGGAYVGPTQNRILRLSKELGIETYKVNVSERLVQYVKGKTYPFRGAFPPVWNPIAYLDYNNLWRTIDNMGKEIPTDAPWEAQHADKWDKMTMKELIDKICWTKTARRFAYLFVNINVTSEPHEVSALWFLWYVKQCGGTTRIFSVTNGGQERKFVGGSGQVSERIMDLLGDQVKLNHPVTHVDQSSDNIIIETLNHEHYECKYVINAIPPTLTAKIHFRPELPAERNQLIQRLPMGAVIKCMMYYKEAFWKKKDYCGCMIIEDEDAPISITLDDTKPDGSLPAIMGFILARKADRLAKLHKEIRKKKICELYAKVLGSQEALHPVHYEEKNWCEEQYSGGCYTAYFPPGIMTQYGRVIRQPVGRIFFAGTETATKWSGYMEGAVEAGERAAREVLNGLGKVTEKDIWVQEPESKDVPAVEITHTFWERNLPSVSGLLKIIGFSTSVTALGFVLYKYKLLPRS

Acetylcholinesterase (Homo sapiens), sequence (P22303 whole entry): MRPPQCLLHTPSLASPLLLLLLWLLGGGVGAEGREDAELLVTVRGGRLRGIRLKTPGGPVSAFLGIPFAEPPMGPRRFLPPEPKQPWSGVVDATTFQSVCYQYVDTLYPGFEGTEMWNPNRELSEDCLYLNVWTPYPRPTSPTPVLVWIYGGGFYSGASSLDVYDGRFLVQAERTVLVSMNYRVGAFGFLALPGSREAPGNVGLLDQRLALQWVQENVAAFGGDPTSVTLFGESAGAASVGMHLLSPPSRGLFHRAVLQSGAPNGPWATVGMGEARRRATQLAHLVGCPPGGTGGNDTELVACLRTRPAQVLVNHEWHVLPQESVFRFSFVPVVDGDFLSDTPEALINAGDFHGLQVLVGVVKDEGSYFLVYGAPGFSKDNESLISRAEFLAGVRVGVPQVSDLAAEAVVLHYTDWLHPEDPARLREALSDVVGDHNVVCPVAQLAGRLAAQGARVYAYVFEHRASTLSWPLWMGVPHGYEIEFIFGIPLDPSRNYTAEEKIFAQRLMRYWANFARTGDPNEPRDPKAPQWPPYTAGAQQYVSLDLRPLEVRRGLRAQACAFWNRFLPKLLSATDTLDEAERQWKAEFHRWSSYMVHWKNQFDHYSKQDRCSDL

Compound | inhibition [1] [%] | inhibition at 10 µM [2] [%] | inhibition at 10 µM [3] [%]
O=c1c2c(O)c(-c3cc(O)c4oc5cc(O)cc(O)c5c(=O)c4c3O)c(O)cc2oc2c(O)ccc(O)c12 | 20.9 | 41.1 | 14.8
O=c1c2c(O)cc(O)cc2oc2c(O)ccc(O)c12 [DEMETHYLBELLIDIFOLIN] | 17.5 | 59 | 90.5
COc1cc(O)c2c(=O)c3cc(O[C@@H]4O[C@H](CO)[C@@H](O)[C@H](O)[C@H]4O)ccc3oc2c1OC [VERATRILOSIDE] | 28.2 | 56 | 19.4
COc1cc(O)c2c(=O)c3c(O)c(O[C@@H]4O[C@H](CO)[C@@H](O)[C@H](O)[C@H]4O)ccc3oc2c1OC [TRIPTEXANTHOSIDE C] | 43.7 | 38.8 | 13.4
COc1c(O)ccc2c(=O)c3c(OC4O[C@H](CO)[C@@H](O)[C@H](O)[C@H]4O)cc(O)c(OC)c3oc12 (some centres not stated) | 1.5 | 70.5 | 15
COc1ccc(O[C@@H]2O[C@H](CO)[C@@H](O)[C@H](O)[C@H]2O)c2c(=O)c3c(O)c(-c4cc(O)c5oc6cc(O)cc(O)c6c(=O)c5c4O)c(O)cc3oc12 | 12.3 | 39.1 | 21.4
COc1cc(O)c2c(=O)c3c(O)ccc(O)c3oc2c1 [BELLIDIFOLIN] | 21.9 | 65.2 | 98.9
COc1ccc(O)c2c(=O)c3c(O)cc(O[C@@H]4O[C@H](CO)[C@@H](O)[C@H](O)[C@H]4O)c(OC)c3oc12 | 17.6 | 47.8 | 40.2
C#CCN(C)Cc1ccccc1 [PARGYLINE] |  | 98.2 | 60
O=c1c2c(O)cc(O)cc2oc2c(O)ccc(O[C@@H]3O[C@H](CO)[C@@H](O)[C@H](O)[C@H]3O)c12 [NORSWERTIANOLIN] | 4.4 | 28.9 | 12.2
COc1cc(O)c2c(=O)c3c(O[C@@H]4O[C@H](CO)[C@@H](O)[C@H](O)[C@H]4O)ccc(O)c3oc2c1 [SWERTIANOLIN] | 9.8 | 93.6 | 43.8
